{"source": "patent EP0955045A1", "about": "“DRUGS FOR IMPROVING OCULAR CIRCULATION DISORDERS” (Senju Pharmaceutical Co., Ltd., priority 1996, dated 1998)", "key": {"[1]": {"test_system": "mice", "details": "cited from earlier work"}, "[2]": {"test_system": "blood flow of optic nerve head induced by intravitreous injection of ET-1", "assay": "Effect of topical instillation on the ET-1-induced decrease in optic nerve head blood flow (hydrogen clearance method)", "format": "in vivo, Male Dutch pigmented rabbits", "details": "versus physiological saline in contralateral eye; 30 to 120 minutes after ET-1 injection; paired t-test; n=6", "procedure": "The effect of topically applied amosulalol hydrochloride on the blood flow of optic nerve head induced by intravitreous injection of ET-1 in pigmented rabbits.\nMale Dutch pigmented rabbits weighing about 2 kg were purchased from Fukusaki Rabbit Farmers Association and used after confirmation of absence of ocular abnormality. The rabbits were housed at 23 ±3 °C and 55±10% R.H. and put on a ration of 100 g/day of rabbit chow (Labo R Stock, Nippon Nosan Kogyo K.K.) with free access to tap water.\nAs the investigational drug, the anti-ocular circulatory disturbance composition containing 0.5% (w/v) of amosulalol hydrochloride as obtained in Example 7 was used. As a control drug, physiological saline solution was used. […]\nThe rabbit was placed in a retainer for rabbits and, after instillation of Mydrin P (Registered Trademark, Santen Pharmaceutical) for mydriasis and observation of the optic nerve head for any abnormality, general anesthesia was introduced by injecting urethane (dissolved in distilled water to 20% concentration), 1 g/kg, subcutaneously in the abdominal region. […] The half-life (T1/2) was determined from the line and the blood flow was calculated by means of Kety's theoretical formula (Journal of Clinical Investigate, 27, 476-483, 1948). […]"}}, "note": "Where a name gives a salt, the structure may show the parent alone. Read-outs that look alike come from different tables or passages of the source."}
{"smiles": "COc1ccccc1OCCNCC(O)c1ccc(C)c(S(N)(=O)=O)c1", "note": "(stereo not drawn) [amosulalol hydrochloride, 5-{1-hydroxy-2-[2-(2-methoxyphenoxy)ethylamino]ethyl}-2-methylbenzenesulfonamide]", "values": [{"measurement": "acute toxicity", "setting": "[1]; intravenous administration", "value": "very low"}, {"measurement": "acute toxicity", "setting": "[1]; oral administration", "value": "very low"}, {"measurement": "inhibition of the ET-1-induced decrease in blood flow", "setting": "[2]", "value": "inhibited"}]}
